# Source: ChEMBL document CHEMBL3885881, “DrugMatrix”
# Organism: Rattus norvegicus
# Experiment: DrugMatrix - Regimen: Daily Repeat
# Format: toxicity, organism-based, Sprague-Dawley
# Design: regimen Daily Repeat, gender Male, age 6-8 weeks
# Conditions: in vivo, po, route oral GAVAGE, […]; for ABSOLUTE BASOPHIL / ABSOLUTE EOSINOPHIL / ABSOLUTE LYMPHOCYTE / ABSOLUTE MONOCYTE / ABSOLUTE SEGMENTED NEUTROPHIL / BASOPHIL / EOSINOPHIL / ERYTHROCYTE COUNT / HEMATOCRIT / HEMOGLOBIN / LEUKOCYTE COUNT / LYMPHOCYTE / MEAN CORPUSCULAR HEMOGLOBIN / MEAN CORPUSCULAR HEMOGLOBIN CONCENTRATION / MEAN CORPUSCULAR VOLUME / MONOCYTE / NEUTROPHIL / NUCLEATED RED BLOOD CELLS / PLATELET COUNT: tissue Blood; for ALANINE AMINOTRANSFERASE / ALBUMIN / ALKALINE PHOSPHATASE / ASPARTATE AMINOTRANSFERASE / BLOOD UREA NITROGEN / CARBON DIOXIDE / CHLORIDE / CHOLESTEROL / CREATINE PHOSPHOKINASE / CREATININE / GLUCOSE / LACTATE DEHYDROGENASE / LIPASE / PHOSPHORUS / POTASSIUM / SODIUM / TOTAL BILIRUBIN / TOTAL PROTEIN / URIC ACID: tissue Plasma
# [1] = 3 mg/kg, 120 h, dose level Low, time 5 day
# [2] = 775 mg/kg, 72 h, dose level High, time 3 day
# [3] = 775 mg/kg, 120 h, dose level High, time 5 day
structure (smiles),measurement,setting,value
CS(=O)(=O)c1ccc(C2=C(c3ccccc3)C(=O)OC2)cc1 [ROFECOXIB],ABSOLUTE BASOPHIL,[1],0 CELLS/uL
same,ABSOLUTE EOSINOPHIL,[1],0 CELLS/uL
same,ABSOLUTE LYMPHOCYTE,[1],7546 CELLS/uL
same,ABSOLUTE MONOCYTE,[1],71.67 CELLS/uL
same,ABSOLUTE SEGMENTED NEUTROPHIL,[1],782.33 CELLS/uL
same,BASOPHIL,[1],0%
same,EOSINOPHIL,[1],0%
same,ERYTHROCYTE COUNT,[1],5.17 x10E6/uL
same,HEMATOCRIT,[1],33.27%
same,HEMOGLOBIN,[1],13.07 G/DL
same,LEUKOCYTE COUNT,[1],8.4 x10E3/uL
same,LYMPHOCYTE,[1],90.67%
same,MEAN CORPUSCULAR HEMOGLOBIN,[1],25.27 pg
same,MEAN CORPUSCULAR HEMOGLOBIN CONCENTRATION,[1],39.27 G/DL
same,MEAN CORPUSCULAR VOLUME,[1],64.33 fL
same,MONOCYTE,[1],1%
same,NEUTROPHIL,[1],8.33%
same,NUCLEATED RED BLOOD CELLS,[1],0 /100WBC
same,PLATELET COUNT,[1],1212.67 x10E3/uL
same,ALANINE AMINOTRANSFERASE,[1],57.33 u/L
same,ALBUMIN,[1],4.17 G/DL
same,ALKALINE PHOSPHATASE,[1],300.67 u/L
same,ASPARTATE AMINOTRANSFERASE,[1],85.67 u/L
same,BLOOD UREA NITROGEN,[1],12.33 mg/dL
same,CARBON DIOXIDE,[1],27.67 mmol/L
same,CHLORIDE,[1],100.67 MEQ/L
same,CHOLESTEROL,[1],62 mg/dL
same,CREATINE PHOSPHOKINASE,[1],325.33 u/L
same,CREATININE,[1],0.22 mg/dL
same,GLUCOSE,[1],165 mg/dL
same,LACTATE DEHYDROGENASE,[1],77 u/L
same,LIPASE,[1],11.33 u/L
same,PHOSPHORUS,[1],9.4 mg/dL
same,POTASSIUM,[1],6.14 MEQ/L
same,SODIUM,[1],145.9 MEQ/L
same,TOTAL BILIRUBIN,[1],0.13 mg/dL
same,TOTAL PROTEIN,[1],6.1 G/DL
same,URIC ACID,[1],0.73 mg/dL
same,ABSOLUTE BASOPHIL,[2],0 CELLS/uL
same,ABSOLUTE EOSINOPHIL,[2],0 CELLS/uL
same,ABSOLUTE LYMPHOCYTE,[2],11625.33 CELLS/uL
same,ABSOLUTE MONOCYTE,[2],298.67 CELLS/uL
same,ABSOLUTE SEGMENTED NEUTROPHIL,[2],1009.33 CELLS/uL
same,BASOPHIL,[2],0%
same,EOSINOPHIL,[2],0%
same,ERYTHROCYTE COUNT,[2],5.13 x10E6/uL
same,HEMATOCRIT,[2],32.27%
same,HEMOGLOBIN,[2],12.53 G/DL
same,LEUKOCYTE COUNT,[2],12.93 x10E3/uL
same,LYMPHOCYTE,[2],90%
same,MEAN CORPUSCULAR HEMOGLOBIN,[2],24.43 pg
same,MEAN CORPUSCULAR HEMOGLOBIN CONCENTRATION,[2],38.83 G/DL
same,MEAN CORPUSCULAR VOLUME,[2],62.93 fL
same,MONOCYTE,[2],2.33%
same,NEUTROPHIL,[2],7.67%
same,NUCLEATED RED BLOOD CELLS,[2],0.33 /100WBC
same,PLATELET COUNT,[2],877.67 x10E3/uL
same,ALANINE AMINOTRANSFERASE,[2],55.33 u/L
same,ALBUMIN,[2],3.53 G/DL
same,ALKALINE PHOSPHATASE,[2],313.67 u/L
same,ASPARTATE AMINOTRANSFERASE,[2],81.33 u/L
same,BLOOD UREA NITROGEN,[2],14.33 mg/dL
same,CARBON DIOXIDE,[2],26.67 mmol/L
same,CHLORIDE,[2],99.33 MEQ/L
same,CHOLESTEROL,[2],77.67 mg/dL
same,CREATINE PHOSPHOKINASE,[2],192.67 u/L
same,CREATININE,[2],0.21 mg/dL
same,GLUCOSE,[2],185.67 mg/dL
same,LACTATE DEHYDROGENASE,[2],91.33 u/L
same,LIPASE,[2],22.33 u/L
same,PHOSPHORUS,[2],10.4 mg/dL
same,POTASSIUM,[2],5.68 MEQ/L
same,SODIUM,[2],144.1 MEQ/L
same,TOTAL BILIRUBIN,[2],0.1 mg/dL
same,TOTAL PROTEIN,[2],5.6 G/DL
same,URIC ACID,[2],0.87 mg/dL
same,ABSOLUTE BASOPHIL,[3],0 CELLS/uL
same,ABSOLUTE EOSINOPHIL,[3],72.67 CELLS/uL
same,ABSOLUTE LYMPHOCYTE,[3],8378 CELLS/uL
same,ABSOLUTE MONOCYTE,[3],35.33 CELLS/uL
same,ABSOLUTE SEGMENTED NEUTROPHIL,[3],1314 CELLS/uL
same,BASOPHIL,[3],0%
same,EOSINOPHIL,[3],0.67%
same,ERYTHROCYTE COUNT,[3],4.79 x10E6/uL
same,HEMATOCRIT,[3],30.33%
same,HEMOGLOBIN,[3],11.77 G/DL
same,LEUKOCYTE COUNT,[3],9.8 x10E3/uL
same,LYMPHOCYTE,[3],84%
same,MEAN CORPUSCULAR HEMOGLOBIN,[3],24.53 pg
same,MEAN CORPUSCULAR HEMOGLOBIN CONCENTRATION,[3],38.8 G/DL
same,MEAN CORPUSCULAR VOLUME,[3],63.33 fL
same,MONOCYTE,[3],0.67%
same,NEUTROPHIL,[3],14.67%
same,NUCLEATED RED BLOOD CELLS,[3],0 /100WBC
same,PLATELET COUNT,[3],1142 x10E3/uL
same,ALANINE AMINOTRANSFERASE,[3],51 u/L
same,ALBUMIN,[3],3.33 G/DL
same,ALKALINE PHOSPHATASE,[3],298.67 u/L
same,ASPARTATE AMINOTRANSFERASE,[3],77.33 u/L
same,BLOOD UREA NITROGEN,[3],12.67 mg/dL
same,CARBON DIOXIDE,[3],28 mmol/L
same,CHLORIDE,[3],99.67 MEQ/L
same,CHOLESTEROL,[3],80 mg/dL
same,CREATINE PHOSPHOKINASE,[3],192.67 u/L
same,CREATININE,[3],0.34 mg/dL
same,GLUCOSE,[3],160.67 mg/dL
same,LACTATE DEHYDROGENASE,[3],72 u/L
same,LIPASE,[3],12.67 u/L
same,PHOSPHORUS,[3],9.2 mg/dL
same,POTASSIUM,[3],5.83 MEQ/L
same,SODIUM,[3],144.83 MEQ/L
same,TOTAL BILIRUBIN,[3],0.1 mg/dL
same,TOTAL PROTEIN,[3],5.6 G/DL
same,URIC ACID,[3],0.7 mg/dL
